Experimental data from paper PMC11942905, “Identification of a Selective Inhibitor of Human NFS1, a Cysteine Desulfurase Involved in Fe-S Cluster Assembly, via Structure-Based Virtual Screening” (International Journal of Molecular Sciences, 2025).
Entries after “also recorded” stand apart in the source; their conditions may differ.

Key:
[1] = molecular target: T1, human cystathionine-β-synthase (CBS) (Homo sapiens, UniProt P35520); test: Selectivity assay, H2S-producing activity of CBS; format: biochemical; conditions: at 100 µM
T1 construct: made in house; host or cells: E. coli
T1 sequence (P35520 1-551): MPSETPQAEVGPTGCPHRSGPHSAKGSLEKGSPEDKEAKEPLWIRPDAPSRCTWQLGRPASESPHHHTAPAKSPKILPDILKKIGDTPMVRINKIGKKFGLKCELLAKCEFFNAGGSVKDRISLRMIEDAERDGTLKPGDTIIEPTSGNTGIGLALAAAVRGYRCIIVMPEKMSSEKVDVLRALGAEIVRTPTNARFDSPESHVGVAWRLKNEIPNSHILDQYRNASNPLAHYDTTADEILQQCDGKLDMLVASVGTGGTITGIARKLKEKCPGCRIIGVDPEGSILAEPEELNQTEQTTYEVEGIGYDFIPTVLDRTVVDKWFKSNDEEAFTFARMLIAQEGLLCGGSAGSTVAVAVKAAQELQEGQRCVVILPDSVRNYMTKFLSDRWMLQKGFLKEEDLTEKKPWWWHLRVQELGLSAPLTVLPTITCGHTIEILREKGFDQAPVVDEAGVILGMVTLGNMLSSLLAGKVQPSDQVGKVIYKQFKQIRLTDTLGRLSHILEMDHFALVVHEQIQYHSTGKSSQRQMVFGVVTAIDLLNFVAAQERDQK
Experimental: (§1) To evaluate the selectivity of Compounds 53 and 56, their effects on the activities of two other PLP-dependent enzymes, human cystathionine-β-synthase (CBS) and cystathionine-γ-lyase (CSE), were determined using a H2S-producing assay. Human CBS and CSE were expressed and purified in E. coli with a purity exceeding 90%, as confirmed by SDS-PAGE (Figures S4A and S5A). Subsequently, the H2S-producing activities of CBS and CSE were assessed in the presence of different concentrations of Compounds 53 and 56. A widely used CBS inhibitor, AOAA, and a specific CSE inhibitor, PAG, were used as positive controls (Figures S4B and S5B).
(§2) The H2S-producing activity of CBS was measured as previously described. The reaction mixture (200 μL) contained 50 mM of Hepes buffer (pH 7.4), 2 mM of homocysteine, 10 μM of PLP, 0.4 mM of lead nitrate, and 5 μg of CBS protein. It was preincubated at 37 °C for 3 min, and the reaction was initiated by the addition of 2 mM of cysteine. The reaction was monitored in a multifunctional microplate reader at 37 °C for 10 min. An extinction coefficient of 5500 M^−1 cm^−1 at 390 nm was used to calculate the lead sulfide concentration. The method used to determine CSE activity in the H2S-producing assay was identical to the CBS assay, except that 1 mM of cysteine was used as the sole substrate. […]

[2] = molecular target: T2, cystathionine-γ-lyase (CSE) (Homo sapiens, UniProt P32929); test: Selectivity assay, H2S-producing activity of CSE; format: biochemical; conditions: at 100 µM
T2 construct: made in house; host or cells: E. coli
Experimental: as §1, §2

A549 cells [3] = test: CCK-8 cell viability assay, A549; format: cell-based, human; conditions: for IC50: Homo sapiens, A549, CCK-8, 72 h
Experimental: (§3) Human bronchial epithelial cells (BEAS-2B) and human lung adenocarcinoma A549 cells were purchased from the Institute of Biochemistry and Cell Biology, Chinese Academy of Sciences (Shanghai, China). BEAS-2B and A549 cells were cultured in DMEM supplemented with 10% (v/v) fetal bovine serum and 1% (v/v) penicillin–streptomycin solution at 37 °C in a humidified atmosphere containing 5% CO2. The half-maximal inhibitory concentration (IC50) values of the selected compounds against BEAS-2B and A549 cells were determined using the CCK-8 assay. Briefly, the cells were seeded into 96-well culture plates at a density of 5 × 10^3 cells per well. After 12 h of culture, fresh medium containing varying concentrations of the selected compounds dissolved in DMSO was added for an additional 72-hour incubation. Subsequently, 10 μL of CCK-8 solution was added to each well, followed by a further 1.5-h incubation at 37 °C. The optical density at 450 nm (OD450) for each well was measured using a microplate reader. Medium containing DMSO alone was used as the control group. Cell viability was calculated as the percentage of the OD450 of the experimental group compared to that of the control group, which was set at 100%.

BEAS-2B cells = test: CCK-8 cell viability assay, BEAS-2B; format: cell-based; conditions: Homo sapiens, CCK-8, 72 h
Experimental: as §3

A549 cells [4] = test: Endogenous ROS levels, DCFH-DA fluorescence; format: cell-based, human; conditions: 48 h, Compound 53 50 µM, Erastin 2.5 µM, 2-AAPA 20 µM
Experimental: Endogenous ROS levels in A549 cells were detected using the fluorescent dye DCFH-DA [48, 49]. A549 cells were cultured in DMEM supplemented with 10% fetal bovine serum at 37 °C in a humidified atmosphere containing 5% CO2. […] Subsequently, the cells were washed three times with prewarmed PBS, and fresh medium containing 10 μM of DCFH-DA was added. After 30 min of incubation, the cells were washed again with prewarmed PBS, fresh medium was added, and the cells were imaged using an inverted fluorescence microscope (Leica, Wetzlar, Germany). Images of live cells were acquired in six different fields. ImageJ software was used to analyze the images.

A549 cells [5] = test: Lipid peroxide (LPO) content; format: cell-based, human; conditions: 48 h, Erastin 2.5 µM, Compound 53 50 µM, 2-AAPA 20 µM, alone or combined
Experimental: A549 cells were seeded in 10 cm dishes at a density of 2 × 10^6 cells per dish and cultured until they reached 40–60% confluence. […] Lipid peroxidation (LPO) levels were measured using a Lipid Peroxide (LPO) Content Assay Kit (Solarbio, China) following the manufacturer’s instructions.

human NFS1 [6] = molecular target: T3, human NFS1 (Homo sapiens, UniProt Q9Y697); test: NFS1 inhibition assay (H2S-producing, methylene blue); format: biochemical; conditions: for inhibition of NFS1: at 100 µM; for IC50: recombinant human NFS1Δ1-55, 1 mM cysteine, n = 4, read-out: IC50, NFS1 activity
T3 construct: His tag (N); made in house; host or cells: E. coli BL21(DE3)
Experimental: The 42 candidate compounds were tested for their inhibitory effects on human NFS1 using an in vitro H2S-producing assay. […] Subsequently, the effects of the selected compounds (100 µM) on human NFS1 activity were evaluated.
The activity of NFS1 was determined using a methylene blue assay as described previously, with some modifications. Briefly, reaction mixtures (200 μL) containing 50 mM of Tris-HCl (pH 8.0), 10 μM of PLP, 1 mM of DTT, and 10 μg of NFS1 were preincubated at 37 °C for 3 min. The reaction was then initiated by adding 1 mM of cysteine. After 15 min of incubation at 37 °C, the reaction was quenched by adding 25 μL of 20 mM N,N-dimethyl-p-phenylenediamine in 7.2 M of HCl and 25 μL of 30 mM FeCl3 in 1.2 M of HCl. Subsequently, the reaction mixtures were incubated for another 15 min at 37 °C, followed by centrifugation at 12,000 rpm for 10 minutes to remove the precipitates. The absorbance of the supernatant was measured at 670 nm. A reaction mixture without the substrate cysteine was used as the negative control. The H2S concentration was calculated based on a standard curve prepared using various concentrations of sodium sulfide (Na2S).
For the NFS1 inhibition assays, all test compounds were dissolved in dimethyl sulfoxide (DMSO) to prepare 10 mM stock solutions, which were stored at −80 °C. The stock solutions were diluted to the appropriate concentrations with 50 mM of Tris-HCl (pH 8.0) as required for the experiments. A reaction mixture containing DMSO but no test compounds was used as a negative control. The dose-dependent effects of the inhibitors on NFS1 activity were determined using the methylene blue assay described above. The IC50 values of the inhibitors were calculated by adding different concentrations of the inhibitors to the enzyme reaction mixtures.

[7] = tested on: cysteine desulfurase activity of Plasmodium falciparum; set-up: method as in PMID 24709262; conditions: cited from earlier work
human NFS1 [8] = molecular target: T3, human NFS1; set-up: method as in PMID 36103522; conditions: cited from earlier work

T3 sequence (Q9Y697 56-457): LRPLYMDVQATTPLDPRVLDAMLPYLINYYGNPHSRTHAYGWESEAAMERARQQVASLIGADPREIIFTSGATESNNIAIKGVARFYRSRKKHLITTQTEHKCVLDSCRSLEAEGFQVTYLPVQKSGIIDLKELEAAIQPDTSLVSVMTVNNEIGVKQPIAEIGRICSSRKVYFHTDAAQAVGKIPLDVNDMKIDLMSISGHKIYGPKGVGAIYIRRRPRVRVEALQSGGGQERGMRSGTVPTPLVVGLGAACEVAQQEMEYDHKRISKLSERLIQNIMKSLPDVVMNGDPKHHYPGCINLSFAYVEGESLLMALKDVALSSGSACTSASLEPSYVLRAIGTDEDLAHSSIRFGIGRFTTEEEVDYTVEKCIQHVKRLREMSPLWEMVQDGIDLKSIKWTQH
T2 sequence (P32929 whole entry): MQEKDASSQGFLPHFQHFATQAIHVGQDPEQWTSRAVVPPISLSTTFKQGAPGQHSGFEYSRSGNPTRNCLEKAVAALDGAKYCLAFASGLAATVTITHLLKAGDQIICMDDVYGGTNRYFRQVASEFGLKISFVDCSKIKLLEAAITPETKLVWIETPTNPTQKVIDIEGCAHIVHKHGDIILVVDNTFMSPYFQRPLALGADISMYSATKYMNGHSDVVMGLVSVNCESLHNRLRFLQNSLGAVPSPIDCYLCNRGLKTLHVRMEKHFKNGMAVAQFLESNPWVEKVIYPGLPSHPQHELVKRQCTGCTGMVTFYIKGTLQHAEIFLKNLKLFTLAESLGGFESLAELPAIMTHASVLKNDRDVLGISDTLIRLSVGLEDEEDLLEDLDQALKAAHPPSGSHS

COc1cc(/C=N/NC(=O)CSc2nnc(SCc3ccccc3)s2)cc(OC)c1O [Compound 56]
inhibitory effect on CBS [1]: no significant inhibitory effects
inhibitory effect on CSE [2]: no significant inhibitory effects
IC50 (A549 cells [3]): 27.7 ± 1.99 µM
IC50 (BEAS-2B cells): 78.4 ± 2 µM

CC(=O)NC(CSC(=O)Nc1ccc(NC(=O)SCC(NC(C)=O)C(=O)O)cc1)C(=O)O (stereo not shown) [Compound 2-AAPA, 2-Acetylamino-3-[4-(2-acetylamino-2-carboxyethylsulfanylcarbonylamino)phenylcarbamoylsulfanyl] propionic acid]
IC50 (A549 cells [3]): ~20 µM
intracellular ROS levels (A549 cells [4]): significantly elevated cellular ROS levels
intracellular lipid peroxide (LPO) levels (A549 cells [5]): no significant changes

COc1cc(/C=N\NC(=O)Cc2nnc(NC(=O)c3ccc([N+](=O)[O-])cc3)s2)ccc1O [Compound 1]
inhibition of NFS1 (human NFS1 [6]): approximately 50%
IC50 (human NFS1 [6]): 153 ± 3.42 µM

N[C@@H]1CON=C1O [D-cycloserine]
IC50 [7]: ~29 µM

COCC1(CO)C(=O)C2CCN1CC2 (stereo not shown) [APR-246, eprenetapopt]
concentrations required to inhibit NFS1 (human NFS1 [8]): millimolar concentrations

CCOc1ccccc1-n1c(C(C)N2CCN(C(=O)COc3ccc(Cl)cc3)CC2)nc2ccccc2c1=O (stereo not shown) [Erastin]
effect on cell viability (A549 cells [3]; A549 cells, 2.5 µM): did not significantly affect cell viability
intracellular ROS levels (A549 cells [4]): significantly increased intracellular ROS levels; also recorded: significantly elevated cellular ROS levels
intracellular lipid peroxide (LPO) levels (A549 cells [5]): elevated LPO levels

O=c1cc(-c2ccc(O)c(O)c2)oc2cc(O[C@H]3O[C@H](CO)[C@@H](O)[C@@H](O)[C@@H]3O)cc(O)c12 [Compound 37]
inhibition of NFS1 (human NFS1 [6]): approximately 50%
IC50 (human NFS1 [6]): 141 ± 3.49 µM
